ChEMBL document CHEMBL1201862, “PubChem BioAssay data set” (2004)
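These data come from cells grown in 96-well plates and exposed to compound for 48 hours at five concentrations. Abbreviation: GI50, concentration required for 50% inhibition of growth.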 Active and inactive are the calls of the source. No stated cut-off is given here; in the data, active = GI50 up to about 1.1 µM and inactive = higher.

How the values were obtained:
Test in all cases: NCI anticancer screen, dose series, 48 h
786-0 = tested on: 786-0
ACHN = tested on: ACHN
HL-60 = tested on: HL-60
LOX IMVI = tested on: LOX IMVI
MCF7 = tested on: MCF7
MOLT-4 = tested on: MOLT-4
Malme-3M = tested on: Malme-3M
NCI-H23 = tested on: NCI-H23
NCI-H522 = tested on: NCI-H522
PC-3 = tested on: PC-3
SF-295 = tested on: SF-295
SK-OV-3 = tested on: SK-OV-3
SNB-19 = tested on: SNB-19
T47D = tested on: T47D
UACC-62 = tested on: UACC-62
UO-31 = tested on: UO-31
NCI-H460 = tested on: NCI-H460
SN12C = tested on: SN12C
SNB-75 = tested on: SNB-75
HCC 2998 = tested on: HCC 2998

| Structure (SMILES) | GI50 (786-0) | GI50 (ACHN) | GI50 (HL-60) | GI50 (LOX IMVI) | GI50 (MCF7) | GI50 (MOLT-4) | GI50 (Malme-3M) | GI50 (NCI-H23) | GI50 (NCI-H522) | GI50 (PC-3) | GI50 (SF-295) | GI50 (SK-OV-3) | GI50 (SNB-19) | GI50 (T47D) | GI50 (UACC-62) | GI50 (UO-31) | GI50 (NCI-H460) | GI50 (SN12C) | GI50 (SNB-75) | GI50 (HCC 2998) |
| --- | --- | --- | --- | --- | --- | --- | --- | --- | --- | --- | --- | --- | --- | --- | --- | --- | --- | --- | --- | --- |
| O=Cc1c2n(c3ccccc13)N[C@@](Cc1ccc(O)cc1)(C(=O)O)C2 | 89.1 µM (inactive) | 62.7 µM (inactive) | 47.1 µM (inactive) | 55.2 µM (inactive) | 55.5 µM (inactive) | 60.3 µM (inactive) | 60.3 µM (inactive) | > 100 µM (inactive) | 25.5 µM (inactive) | 81.7 µM (inactive) | 63.2 µM (inactive) | 77.3 µM (inactive) | > 100 µM (inactive) | 82.4 µM (inactive) | > 100 µM (inactive) | > 100 µM (inactive) | – | – | – | – |
| CCC1=CCC23C(=O)C=CC(=O)C2(C1)C(=O)c1cccc(OC)c1C3=O (stereo unspecified) | 11.9 µM (inactive) | 14.3 µM (inactive) | 2.73 µM (inactive) | 15.1 µM (inactive) | 14.3 µM (inactive) | 3.87 µM (inactive) | 15.9 µM (inactive) | 21.1 µM (inactive) | 31.8 µM (inactive) | 14.9 µM (inactive) | 24.3 µM (inactive) | – | 23.8 µM (inactive) | 0.409 µM (active) | 15.8 µM (inactive) | 10.8 µM (inactive) | 28.2 µM (inactive) | 18.3 µM (inactive) | 15.6 µM (inactive) | – |
| CC(C)[Si](OC1=C(C(=O)N(C)c2ccccc2Cl)CCCC1)(C(C)C)C(C)C | 17.1 µM (inactive) | 15.5 µM (inactive) | – | 15.7 µM (inactive) | 13.2 µM (inactive) | 14.1 µM (inactive) | 13 µM (inactive) | 16.3 µM (inactive) | 5.77 µM (inactive) | 11.4 µM (inactive) | 7.52 µM (inactive) | 14.7 µM (inactive) | 12.8 µM (inactive) | 2.55 µM (inactive) | 15.7 µM (inactive) | 14.5 µM (inactive) | 12.9 µM (inactive) | – | 14.3 µM (inactive) | 13.6 µM (inactive) |
| C/C1=C/C[C@@H](/C(C)=C/c2csc(C)n2)OC(=O)C[C@H](O)C(C)(C)C(=O)[C@H](C)[C@@H](O)[C@@H](C)CCC1 [EPOTHILONE D] | < 0.0001 µM (active) | < 0.0001 µM (active) | – | < 0.0001 µM (active) | < 0.0001 µM (active) | < 0.0001 µM (active) | – | < 0.0001 µM (active) | < 0.0001 µM (active) | < 0.0001 µM (active) | < 0.0001 µM (active) | < 0.0001 µM (active) | < 0.0001 µM (active) | < 0.0001 µM (active) | < 0.0001 µM (active) | < 0.0001 µM (active) | < 0.0001 µM (active) | < 0.0001 µM (active) | < 0.0001 µM (active) | < 0.0001 µM (active) |
| CC1=NN(c2nc(N)nc(CS(C)(=O)=O)n2)C(C)(C)C1 | > 100 µM (inactive) | > 100 µM (inactive) | > 100 µM (inactive) | > 100 µM (inactive) | > 100 µM (inactive) | > 100 µM (inactive) | – | > 100 µM (inactive) | – | > 100 µM (inactive) | > 100 µM (inactive) | > 100 µM (inactive) | > 100 µM (inactive) | > 100 µM (inactive) | > 100 µM (inactive) | > 100 µM (inactive) | > 100 µM (inactive) | – | > 100 µM (inactive) | > 100 µM (inactive) |
| CSc1nc(NC(C)C)c2c(n1)Sc1nc3ccccc3n1C2O (stereo unspecified) | 4.11 µM (inactive) | 7.93 µM (inactive) | – | 7 µM (inactive) | 0.0465 µM (active) | 2.84 µM (inactive) | 1.98 µM (inactive) | 4.79 µM (inactive) | 2.28 µM (inactive) | 1.83 µM (inactive) | 3.45 µM (inactive) | 5.28 µM (inactive) | – | 4.2 µM (inactive) | – | 5.71 µM (inactive) | – | 9.57 µM (inactive) | 4.61 µM (inactive) | 5.55 µM (inactive) |
| CC1C[C@]2(C)C(=S)Nc3ccccc3[C@@H]2Nc2ccccc21 (stereo partly specified) | 16.3 µM (inactive) | 19.3 µM (inactive) | 33.5 µM (inactive) | 13.4 µM (inactive) | 13 µM (inactive) | 17.5 µM (inactive) | 15.9 µM (inactive) | 15.2 µM (inactive) | – | 15.4 µM (inactive) | 18.5 µM (inactive) | – | 21.7 µM (inactive) | 17.9 µM (inactive) | 18 µM (inactive) | 18.7 µM (inactive) | 13.2 µM (inactive) | 17.9 µM (inactive) | 13.9 µM (inactive) | 22.2 µM (inactive) |
| O=c1oc2ccc3ccccc3c2cc1-c1nnc(Nc2ccccc2)s1 | 16 µM (inactive) | 13.2 µM (inactive) | – | – | 34.8 µM (inactive) | 0.757 µM (active) | – | 31 µM (inactive) | 0.986 µM (active) | 17.1 µM (inactive) | 65.3 µM (inactive) | – | 38.4 µM (inactive) | 77.1 µM (inactive) | 23.8 µM (inactive) | 21.4 µM (inactive) | 18.7 µM (inactive) | 50.8 µM (inactive) | – | 44.8 µM (inactive) |
